Patent US7626026B2, “Pyrrolo-indole and pyrrolo-quinoline derivatives as prodrugs for tumour treatment” (University of Bradford, priority 2001, dated 2009)
Marks after values point to notes of the source that are not given here.

Test system: Chinese Hamster Ovary (CHO) cell
Assay: MTT cytotoxicity in CHO cells, with and without activation by NADPH-supplemented rat liver microsomes
Format: cell-based
Settings: for IC50: Cricetulus griseus, CHO, cells incubated 24 hours, MTT, mean±sd for three experiments
Experimental: Test compound (synthesised in example 3) activation by CYP enzymes was carried out using NADPH supplemented rat liver microsomes; Incubation mixtures comprised microsomal protein (1 mg/ml), reduced-nicotinamide adenine dinucleotide phosphate (NADPH, 10 mM) and phosphate buffer (pH7.4, 100 mM). Test compound (0.01-100 μM final concentration) in DMSO (20 μl) was added to the microsomal incubation mixtures (0.5 ml) and incubated for 60 min at 37C. Control incubates contained test compound and microsomal incubation mixture terminated at 0 time. All incubations were terminated by addition of an equal volume of ice-cold acetonitrile and microfuged for 3 min. Aliquots of the supernatant were added to cells in culture.
Chinese Hamster Ovary (CHO) cell were grown in MEM supplemented with. 10% dialysed FBS and G418 (400 μg/ml). All cells were seeded at an initial density of 1000 cells/well in 96-well-plates, incubation at 37° C. for 24 hours. Aliquots (0.1 ml) of the test compound/microsomal/acetonitrile supernatnant was then added to the CHO cells. Cells were then incubated for 24 hours at 37° C., 5% CO2. After this time period MTT (50 μl; 2 mg/ml stock solution) was added to each well and cells were incubated for a further 4 hours. During this time period MTT, a hydrogen acceptor tetrazolium salt, is reduced to formazan dye by mitochondrial dehydrogenase of viable cells. The media was aspirated from cells and DMSO (100 μl/well) added to solubilise the coloured formazan dye. Absorbance of the formazan dye in the 96-well-plates was then determined at 550 nm. The effect of microsomal activation by the test compound on the arrest of CHO cell growth could be determined by comparing the IC50 (concentration that inhibited cell growth by 50%) with and without microsomal incubation.
Effect of compound 3.8 and its metabolism (activation) product on the survival of Chinese hamster ovary cells in culture. Cells were incubated for 24 hours with supernatants from reaction mixtures of compound 3.8 with NADPH fortified rat liver microsomes. […] Values are expressed as the mean±sd for three experiments. […]

## CCOC(=O)c1cc2c3c(ccc2[nH]1)N(C(=O)c1cc2cc(OC)ccc2[nH]1)CC3CCl (stereo not drawn) [3.8, Ethyl 1-(chloromethyl)-3-((5-methoxy-1H-indol-2-yl)carbonyl)-1,2-dihydro-3H-pyrrolo[3,2-e]indole-7-carboxylate]
CHO cells, IC50 −activation / IC50 +activation
  AF (activity factor, ratio of IC50 cytotoxicity values obtained for ± activation): 71.7*
Control incubate terminated at 0 time (no microsomal activation)
  IC50: 4300 ± 410 nM
Supernatant after 60 min incubation at 37C with NADPH-fortified rat liver microsomes
  IC50: 60 ± 20 nM
